According to US20200231685A1, “CONJUGATES FOR TREATING INFLAMMATORY DISEASE AND IDENTIFICATION OF PATIENTS LIKELY TO BENEFIT FROM SUCH TREATMENT” (The University of Bristol, priority 2013, published 2020):

Columns and labels:
[1] = tested on: Experimental Autoimmune Uveitis (EAU); type: in vivo, mouse; conditions: Day 18; PMA and ionomycin 4 hours
[2] = tested on: Th17 (CCR6+) cells; experiment: Intracellular IL-17 / IFN-γ expression by flow cytometry in human Th17 cultures; type: cell-based
Excerpt: Absolute expression was plotted on a log2 scale colour coded from low to high expression. […] All data are represented as mean±SEM.
CCR6 positive and CCR6 negative CD4^+ T cells were purified and cultured in the presence of polarising cytokines for two weeks. […] Intracellular cytokines were quantified by flow cytometry (FIG. 23A) and percentage suppression calculated in relation to an untreated control (FIG. 23B). Data represents the mean expression of three to four normal volunteers, with error expressed as standard deviation.
Therefore, to determine whether in vitro, human CD4+Th17 T cells were responsive to glucocorticoids, we generated an IL-17 secreting CD4+ T cell subset using the innate expression of CCR6. […] As a result of glucocorticoid binding the glucocorticoid receptor (GR), the GR translocates to the nucleus and binds to glucocorticoid-response elements within the DNA. […] We then compared the translocation of the GR in Th17 and Th0 cells.
Cell Cultures. Murine Naive T cells were obtained from lymph nodes and spleens of OT-II/3A9 mice using CD4 positive selection kits following the manufacturer's instructions (Miltenyi Biotech). Splenocytes from respective wild-type mice were irradiated and mixed with the CD4^+ T cells at a 1:10 ratio. […] All cells were kept in a 37° C., 5% CO2 humidified incubator. Cells were used after two rounds of activation. Human peripheral CD4^+CCR6^− (Th0) and CD4^+CCR6^+ (Th17) cells were FACS sorted, resuspended to 2×10^6cells/ml in complete RPMI-1640 (Invitrogen) supplemented with 10% FCS, L-glutamine and Penicillin/streptomycin (all PAA Laboratories Ltd, UK), stimulated with plate-bound 5 μg/ml anti-CD3 and 5 μg/ml anti-CD28 antibodies (eBioscience, US) (Th0) or with plate-bound antibodies and a polarizing cytokine cocktail of 20 ng/ml IL-6, 10 ng/ml IL-23, 10 ng/ml IL-1β (R&D Systems, US), 100 ng/ml anti-IFN-γ, 100 ng/ml anti-IL-4 (eBioscience, US) (Th17) for 3 days. […]

[3] = tested on: CD4+ T cells; experiment: Inhibition of isolated CD4+ T cell proliferation (tritiated thymidine incorporation); type: cell-based, human
Description: Proliferation was measured by tritiated thymidine incorporation (ccpm). Data represents the mean of two normal volunteers, with error expressed as standard deviation.
T Cell Proliferation Assays. T cell proliferation was measured by pulsing with 18.5 kBq [^3H] thymidine (GE Healthcare, US) per well for the final 12 hours of cultures and determining thymidine uptake in counts per minute (c.p.m).

[4] = tested on: Th0 (CCR6-) cells; experiment: Intracellular IFNγ expression by flow cytometry in human Th0 cultures; type: cell-based; conditions: 24 hrs incubation
Excerpt: FIGS. 23A-23B show suppression of IL-17A in human Th17 (CCR6+) cells and IFNγ cytokine production in human Th0 (CCR6^−) and Th17 cells. CCR6 positive and CCR6 negative CD4^+ T cells were purified and cultured in the presence of polarising cytokines for two weeks. […] Intracellular cytokines were quantified by flow cytometry (FIG. 23A) and percentage suppression calculated in relation to an untreated control (FIG. 23B). Data represents the mean expression of three to four normal volunteers, with error expressed as standard deviation.
Cell Cultures. Murine Naive T cells were obtained from lymph nodes and spleens of OT-II/3A9 mice using CD4 positive selection kits following the manufacturer's instructions (Miltenyi Biotech). Splenocytes from respective wild-type mice were irradiated and mixed with the CD4^+ T cells at a 1:10 ratio. […] All cells were kept in a 37° C., 5% CO2 humidified incubator. Cells were used after two rounds of activation. […]

Structure (SMILES): C[C@@H]1C[C@H]2[C@@H]3CCC4=CC(=O)C=C[C@]4(C)[C@@]3(F)[C@@H](O)C[C@]2(C)[C@@]1(O)C(=O)CO [Dex, dexamethasone]
- suppression of IFN-γ expression in eye infiltrating CD4+ cells [1]: 45%

Structure (SMILES): C=CC[C@@H]1/C=C(\C)C[C@H](C)C[C@H](OC)[C@H]2O[C@@](O)(C(=O)C(=O)N3CCCC[C@H]3C(=O)O[C@H](/C(C)=C/[C@@H]3CC[C@@H](O)[C@H](OC)C3)[C@H](C)[C@@H](O)CC1=O)[C@H](C)C[C@@H]2OC [tacrolimus]
- suppression of IFNγ production in Th17 cells ([2]; 24 hrs incubation): equally suppress
- suppression of IL-17A production in Th17 (CCR6+) cells ([2]; 24 hrs incubation): equally suppress
- dose required for cytokine suppression, less than cyclosporine A ([2]; IL-17 in Th17, IFNγ in Th17 and Th0 cells): 20 ×
- concentration for full inhibition of CD4+ cell proliferation, lower compared with cyclosporine A [3]: 20 fold
- dose achieving the same inhibition of CD4+ T cell proliferation [3]: 10 ng/mL
- suppression of IFNγ production in Th0 (CCR6-) cells [4]: equally suppress
